Measurements as given in patent publication US20220396569A1 (Carmot Therapeutics, Inc., priority 2021, published 2022).

Target: T1, human GLP-1 receptor (Homo sapiens, UniProt P43220)
T1 construct: expressed in transfected cells
Assay: GLP-1R cAMP Assay (HitHunter cAMP accumulation)
Type: cell-based
Settings: cAMP accumulation, CHO cells stably overexpressing human GLP-1 receptor, 30 min treatment; read-out: EC50
Summary of the method: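 CHO cells stably expressing human GLP-1R, 10,000 cells/well in HBSS with 10 mM HEPES and 625 μM IBMX, were mixed with anti-cAMP antibody reagent. Compound was applied as a 20-point dose response in triplicate for 30 min. After lysis and overnight detection, luminescence was read and dose-response curves analysed.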

T1 sequence (P43220 24-463): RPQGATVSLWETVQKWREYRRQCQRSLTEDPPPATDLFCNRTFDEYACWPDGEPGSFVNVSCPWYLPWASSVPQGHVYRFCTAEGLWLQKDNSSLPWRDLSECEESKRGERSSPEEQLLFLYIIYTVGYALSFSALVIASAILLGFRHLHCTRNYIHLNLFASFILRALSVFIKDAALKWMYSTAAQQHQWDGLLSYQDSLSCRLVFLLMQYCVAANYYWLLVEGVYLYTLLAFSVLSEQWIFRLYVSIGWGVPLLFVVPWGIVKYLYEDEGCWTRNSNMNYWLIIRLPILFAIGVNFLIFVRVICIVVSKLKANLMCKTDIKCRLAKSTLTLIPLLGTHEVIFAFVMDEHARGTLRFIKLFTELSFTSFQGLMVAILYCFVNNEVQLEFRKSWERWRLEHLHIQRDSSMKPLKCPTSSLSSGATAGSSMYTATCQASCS

EC50, < 50 nM:
O=C(O)c1ccc2nc(CN3CCC(c4cc(F)cc(COc5ccc(Cl)cc5F)c4)C3)n(C[C@@H]3CCO3)c2c1 (stereo partly drawn) [Compound 420, 2-[(3-{3-[(4-chloro-2-fluorophenoxy)methyl]-5-fluorophenyl}pyrrolidin-1-yl)methyl]-1-{[(2S)-oxetan-2-yl]methyl}-1H-1,3-benzodiazole-6-carboxylic acid]
N#Cc1ccc(OCc2nccc(Oc3ccc(Cc4nc5c(F)cc(C(=O)O)cc5n4C[C@@H]4CCO4)cc3F)n2)c(F)c1 [Compound 539, (S)-2-(4-((2-((4-cyano-2-fluorophenoxy)methyl)pyrimidin-4-yl)oxy)-3-fluorobenzyl)-4-fluoro-1-(oxetan-2-ylmethyl)-1H-benzo[d]imidazole-6-carboxylic acid]
N#Cc1ccc(OCc2nc(C3=CCN(Cc4nc5c(F)cc(C(=O)O)cc5n4C[C@@H]4CCO4)C3)ccc2F)c(F)c1 [Compound 421, 2-[(3-{6-[(4-cyano-2-fluorophenoxy)methyl]-5-fluoropyridin-2-yl}-2,5-dihydro-1H-pyrrol-1-yl)methyl]-4-fluoro-1-{[(2S)-oxetan-2-yl]methyl}-1H-1,3-benzodiazole-6-carboxylic acid]
O=C(O)c1ccc2nc(CN3CC=C(c4cncc(COc5ccc(Cl)cc5F)n4)C3)n(C[C@@H]3CCO3)c2c1 [Example 396, (S)-2-((3-(6-((4-Chloro-2-fluorophenoxy)methyl)pyrazin-2-yl)-2,5-dihydro-1H-pyrrol-1-yl)methyl)-1-(oxetan-2-ylmethyl)-1H-benzo[d]imidazole-6-carboxylic acid]
N#Cc1ccc(OCc2cccc(C3=CCN(Cc4nc5ccc(C(=O)O)cc5n4C[C@@H]4CCO4)C3)c2)c(F)c1 [Compound 400, 2-[(3-{3-[(4-cyano-2-fluorophenoxy)methyl]phenyl}-2,5-dihydro-1H-pyrrol-1-yl)methyl]-1-{[(2S)-oxetan-2-yl]methyl}-1H-1,3-benzodiazole-6-carboxylic acid]
O=C(O)c1ccc2nc(CN3CCC(c4cc(COc5ccc(Cl)cc5F)ccn4)C3)n(C[C@@H]3CCO3)c2c1 (stereo partly drawn) [Example 397, 2-((3-(4-((4-Chloro-2-fluorophenoxy)methyl)pyridin-2-yl)pyrrolidin-1-yl)methyl)-1-(((S)-oxetan-2-yl)methyl)-1H-benzo[d]imidazole-6-carboxylic acid]
O=C(O)c1ccc2nc(CN3CC=C(c4ccc(F)c(COc5ccc(Cl)cc5F)n4)C3)n(C[C@@H]3CCO3)c2c1 [Example 407, (S)-2-((3-(6-((4-Chloro-2-fluorophenoxy)methyl)-5-fluoropyridin-2-yl)-2,5-dihydro-1H-pyrrol-1-yl)methyl)-1-(oxetan-2-ylmethyl)-1H-benzo[d]imidazole-6-carboxylic acid]
N#CCC1(Cn2c(CN3CC=C(c4nc(COc5ccc(Cl)cc5F)ccc4F)C3)nc3ccc(C(=O)O)cc32)CC1 [Compound 438, 2-[(3-{6-[(4-chloro-2-fluorophenoxy)methyl]-3-fluoropyridin-2-yl}-2,5-dihydro-1H-pyrrol-1-yl)methyl]-1-{[1-(cyanomethyl)cyclopropyl]methyl}-1H-1,3-benzodiazole-6-carboxylic acid]
